Patent US20060293307A1, “Oxazolidinone derivatives as antimicrobials” (priority 2002, published 2006)
Values after ≈ are worked out from the molar mass of the structure shown. Read-outs that look alike come from different tables or passages of the source.

Legend:
Test in all cases: MIC, agar incorporation method
S. pneumoniae AB4 = assay type: cell-based, Streptococcus pneumoniae; settings: S. No. 33, S. pneumoniae AB4
E. faecalis SP 346 (VRE) = assay type: cell-based; settings: S. No. 20, E. faecalis SP 346 (VRE)
S. pneumoniae AB-2 = assay type: cell-based, Streptococcus pneumoniae; settings: S. No. 31, S. pneumoniae AB-2
S. aureus (MRSA) 21299 = assay type: cell-based, Staphylococcus aureus; settings: S. No. 5, S. aureus (MRSA) 21299
S. aureus SG 511 = assay type: cell-based, Staphylococcus aureus; settings: S. No. 3, S. aureus SG 511
S pneumoniae 1294. = assay type: cell-based, Streptococcus pneumoniae; settings: S. No. 55, S pneumoniae 1294.
S. haemo ATCC 29970 = assay type: cell-based; settings: S. No. 15, S. haemo ATCC 29970
[1] = test system: Serratia marcescens 12999; assay type: cell-based; settings: S. No. 29, Serratia marcescens 12999
(MRSA) 562 = assay type: cell-based, Staphylococcus aureus; settings: S. No. 8, (MRSA) 562
P. aeruginosa ATCC 27853 = assay type: cell-based; settings: S. No. 28, P. aeruginosa ATCC 27853
S. aureus (MRSA) 15187 = assay type: cell-based, Staphylococcus aureus; settings: S. No. 4, S. aureus (MRSA) 15187
S. pyogenes 19615 = assay type: cell-based, Streptococcus pyogenes; settings: S. No. 51, S. pyogenes 19615
[2] = test system: S. epidermidis ATCC 12228; assay type: cell-based, Staphylococcus epidermidis; settings: S. No. 10, S. epidermidis ATCC 12228
S. pneumoniae AB 23 = assay type: cell-based, Streptococcus pneumoniae; settings: S. No. 43, S. pneumoniae AB 23
E. faecalis 29212 = assay type: cell-based; settings: S. No. 17, E. faecalis 29212
S. pneumoniae 217 = assay type: cell-based, Streptococcus pneumoniae; settings: S. No. 38, S. pneumoniae 217
S. aureus ATCC29213 = assay type: cell-based, Staphylococcus aureus; settings: S. No. 2, S. aureus ATCC29213
S. pneumoniae AB 16 = assay type: cell-based, Streptococcus pneumoniae; settings: S. No. 39, S. pneumoniae AB 16
S. pyogenes 20361 = assay type: cell-based, Streptococcus pyogenes; settings: S. No. 53, S. pyogenes 20361
[3] = test system: S. epidermidis (MRSE) 23760; assay type: cell-based, Staphylococcus epidermidis; settings: S. No. 11, S. epidermidis (MRSE) 23760
S. pneumoniae 1251 = assay type: cell-based, Streptococcus pneumoniae; settings: S. No. 54, S. pneumoniae 1251
S. pneumoniae 1275 = assay type: cell-based, Streptococcus pneumoniae; settings: S. No. 57, S. pneumoniae 1275
S. pneumoniae AB 17 = assay type: cell-based, Streptococcus pneumoniae; settings: S. No. 40, S. pneumoniae AB 17
S. aureus (MRSA) ST450 = assay type: cell-based, Staphylococcus aureus; settings: S. No. 6, S. aureus (MRSA) ST450
S. pneumoniae AB 29 = assay type: cell-based, Streptococcus pneumoniae; settings: S. No. 46, S. pneumoniae AB 29
Salmonella 205 = assay type: cell-based; settings: S. No. 26, Salmonella 205
Protocol: The compounds of the invention display antibacterial activity when tested by the agar incorporation method. The following minimum inhibitory concentrations (μg/ml) were obtained for representative compounds of the invention which are given below in the following tables.
Briefly, the compounds were dissolved in DMSO and doubling dilution of the compounds were incorporated into Meer Hilton agar before solidification. Inoculum was prepared by suspending 4 to 5 colonies into 5 ml of normal saline solution and adjusting the turbidity to 0.5 Macfarland turbidity standard tables (1.5×10^8 CFU/ml), after appropriate dilutions, 10^4 CFU/spot was transfered into the surface of dried plate and incubated for 18 hours (24 hours for MRSN studies). The concentration showing no growth of the inoculated culture was recorded as the MIC. Appropriate ATCC standard strains were simultaneously tested and result recorded only when the MIC's against standard antibiotics were within the acceptable range.

S. pneumoniae AB 21 = assay type: cell-based, Streptococcus pneumoniae; settings: S. No. 41, S. pneumoniae AB 21
S. pneumoniae CS1221 = assay type: cell-based, Streptococcus pneumoniae; settings: S. No. 34, S. pneumoniae CS1221
S. aureus ATCC 25923 = assay type: cell-based, Staphylococcus aureus; settings: S. No. 1, organism cell empty
[4] = test system: S. aureus (MRSA 33) Cipro R; assay type: cell-based, Staphylococcus aureus; settings: S. No. 7, S. aureus (MRSA 33) Cipro R
S. pneumoniae AB 22 = assay type: cell-based, Streptococcus pneumoniae; settings: S. No. 42, S. pneumoniae AB 22
[5] = Streptococcus pneumoniae, read-out: MIC
[6] = Enterococcus faecalis, read-out: MIC
[7] = Staphylococcus aureus, read-out: MIC
[8] = Streptococcus pyogenes, read-out: MIC

O=C(NC[C@H]1CN(c2ccc(N3CCN(c4ccc([N+](=O)[O-])s4)CC3)c(F)c2)C(=O)O1)C(Cl)Cl [compound 9, (S)—N-[[3-[-3-Fluoro-4-[N-1-(5-nitro-2-thienyl)-piperazinyl]phenyl] -2-oxo-5-oxazolidinyl]methyl]dichloroacetamide]
MIC (S. pneumoniae AB4): 0.25 µg/mL (≈ 0.47 µM) | MIC (E. faecalis SP 346 (VRE)): 0.5 µg/mL (≈ 0.939 µM) | MIC (S. pneumoniae AB-2): 0.25 µg/mL (≈ 0.47 µM) | MIC (S. aureus (MRSA) 21299): 1 µg/mL (≈ 1.88 µM) | MIC (S. aureus SG 511): 0.5 µg/mL (≈ 0.939 µM) | MIC (S pneumoniae 1294.): 0.5 µg/mL (≈ 0.939 µM) | MIC (S. haemo ATCC 29970): 0.5 µg/mL (≈ 0.939 µM) | MIC [1]: >8 µg/mL | MIC ((MRSA) 562): 1 µg/mL (≈ 1.88 µM) | MIC (P. aeruginosa ATCC 27853): >8 µg/mL | MIC (S. aureus (MRSA) 15187): 1 µg/mL (≈ 1.88 µM) | MIC (S. pyogenes 19615): 0.5 µg/mL (≈ 0.939 µM) | MIC [2]: 0.25 µg/mL (≈ 0.47 µM) | MIC (S. pneumoniae AB 23): 0.25 µg/mL (≈ 0.47 µM) | MIC (E. faecalis 29212): 1 µg/mL (≈ 1.88 µM) | MIC (S. pneumoniae 217): 0.25 µg/mL (≈ 0.47 µM) | MIC (S. aureus ATCC29213): 2 µg/mL (≈ 3.76 µM) | MIC (S. pneumoniae AB 16): 0.25 µg/mL (≈ 0.47 µM) | MIC (S. pyogenes 20361): 0.5 µg/mL (≈ 0.939 µM) | MIC [3]: 0.5 µg/mL (≈ 0.939 µM) | MIC (S. pneumoniae 1251): 0.25 µg/mL (≈ 0.47 µM) | MIC (S. pneumoniae 1275): 0.25 µg/mL (≈ 0.47 µM) | MIC (S. pneumoniae AB 17): 0.25 µg/mL (≈ 0.47 µM) | MIC (S. aureus (MRSA) ST450): 1 µg/mL (≈ 1.88 µM) | MIC (S. pneumoniae AB 29): 0.25 µg/mL (≈ 0.47 µM) | MIC (Salmonella 205): >8 µg/mL | MIC (S. pneumoniae AB 21): 0.25 µg/mL (≈ 0.47 µM) | MIC (S. pneumoniae CS1221): 0.25 µg/mL (≈ 0.47 µM) | MIC (S. aureus ATCC 25923): 2 µg/mL (≈ 3.76 µM) | MIC [4]: 1 µg/mL (≈ 1.88 µM) | MIC (S. pneumoniae AB 22): 0.25 µg/mL (≈ 0.47 µM)

(S)—N-[[3-[-3-Fluoro-4-[(5-nitro-2-thienyl)-3-methyl-1-piperazinyl]phenyl]-2-oxo-5-oxazolidinyl]methyl]acetamide [Compound No. 10]
MIC (S. pneumoniae AB4): 0.5 µg/mL | MIC (E. faecalis SP 346 (VRE)): 1 µg/mL | MIC (S. pneumoniae AB-2): 0.5 µg/mL | MIC (S. aureus (MRSA) 21299): 1 µg/mL | MIC (S. aureus SG 511): 0.5 µg/mL | MIC (S pneumoniae 1294.): 0.5 µg/mL | MIC (S. haemo ATCC 29970): 0.25 µg/mL | MIC [1]: >8 µg/mL | MIC ((MRSA) 562): 1 µg/mL | MIC (P. aeruginosa ATCC 27853): >8 µg/mL | MIC (S. aureus (MRSA) 15187): 1 µg/mL | MIC (S. pyogenes 19615): 0.5 µg/mL | MIC [2]: 0.25 µg/mL | MIC (S. pneumoniae AB 23): 0.5 µg/mL | MIC (E. faecalis 29212): 1 µg/mL | MIC (S. pneumoniae 217): 0.5 µg/mL | MIC (S. aureus ATCC29213): 1 µg/mL | MIC (S. pneumoniae AB 16): 0.5 µg/mL | MIC (S. pyogenes 20361): 0.5 µg/mL | MIC [3]: 0.5 µg/mL | MIC (S. pneumoniae 1251): 0.5 µg/mL | MIC (S. pneumoniae 1275): 0.25 µg/mL | MIC (S. pneumoniae AB 17): 0.5 µg/mL | MIC (S. aureus (MRSA) ST450): 1 µg/mL | MIC (S. pneumoniae AB 29): 0.5 µg/mL | MIC (Salmonella 205): >8 µg/mL | MIC (S. pneumoniae AB 21): 0.5 µg/mL | MIC (S. pneumoniae CS1221): 0.5 µg/mL | MIC (S. aureus ATCC 25923): 1 µg/mL | MIC [4]: 1 µg/mL | MIC (S. pneumoniae AB 22): 0.5 µg/mL

CC(=O)NC[C@H]1CN(c2ccc(N3CCN(c4ccc([N+](=O)[O-])o4)CC3)c(F)c2)C(=O)O1 [Compound No. 4, (S)—N-[[3-[3-Fluoro-4-[4-(5-nitro-2-furyl)-1-piperazinyl]phenyl]-2-oxo-5-oxazolidinyl]methyl]acetamide]
MIC (S. pneumoniae AB4; [5]): 8 µg/mL (≈ 17.9 µM) | MIC (E. faecalis SP 346 (VRE); [6]): 8 µg/mL (≈ 17.9 µM) | MIC (S. pneumoniae AB-2; Streptococcus pneumoniae, AB2, read-out: MIC): 8 µg/mL (≈ 17.9 µM) | MIC (S. aureus (MRSA) 21299; [7]): 8 µg/mL (≈ 17.9 µM) | MIC (S. aureus SG 511; Staphylococcus aureus, SG511, read-out: MIC): 16 µg/mL (≈ 35.8 µM) | MIC (S pneumoniae 1294.; [5]): 8 µg/mL (≈ 17.9 µM) | MIC (S. haemo ATCC 29970; read-out: MIC): 4 µg/mL (≈ 8.94 µM) | MIC ([1]; read-out: MIC): > 16 µg/mL | MIC ((MRSA) 562; [7]): 16 µg/mL (≈ 35.8 µM) | MIC (P. aeruginosa ATCC 27853; Pseudomonas aeruginosa, ATCC27853, read-out: MIC): > 16 µg/mL | MIC (S. aureus (MRSA) 15187; [7]): 8 µg/mL (≈ 17.9 µM) | MIC (S. pyogenes 19615; [8]): 4 µg/mL (≈ 8.94 µM) | MIC ([2]; Staphylococcus epidermidis, ATCC12228, read-out: MIC): 4 µg/mL (≈ 8.94 µM) | MIC (S. pneumoniae AB 23; Streptococcus pneumoniae, AB23, read-out: MIC): 8 µg/mL (≈ 17.9 µM) | MIC (E. faecalis 29212; [6]): 8 µg/mL (≈ 17.9 µM) | MIC (S. pneumoniae 217; [5]): 4 µg/mL (≈ 8.94 µM) | MIC (S. aureus ATCC29213; [7]): 16 µg/mL (≈ 35.8 µM) | MIC (S. pneumoniae AB 16; Streptococcus pneumoniae, AB16, read-out: MIC): 8 µg/mL (≈ 17.9 µM) | MIC (S. pyogenes 20361; [8]): 4 µg/mL (≈ 8.94 µM) | MIC ([3]; Staphylococcus epidermidis, read-out: MIC): 4 µg/mL (≈ 8.94 µM) | MIC (S. pneumoniae 1251; [5]): 4 µg/mL (≈ 8.94 µM) | MIC (S. pneumoniae 1275; [5]): 2 µg/mL (≈ 4.47 µM) | MIC (S. pneumoniae AB 17; Streptococcus pneumoniae, AB17, read-out: MIC): 4 µg/mL (≈ 8.94 µM) | MIC (S. aureus (MRSA) ST450; [7]): 8 µg/mL (≈ 17.9 µM) | MIC (S. pneumoniae AB 29; Streptococcus pneumoniae, AB29, read-out: MIC): 4 µg/mL (≈ 8.94 µM) | MIC (Salmonella 205; read-out: MIC): > 16 µg/mL | MIC (S. pneumoniae AB 21; Streptococcus pneumoniae, AB21, read-out: MIC): 8 µg/mL (≈ 17.9 µM) | MIC (S. pneumoniae CS1221; [5]): 8 µg/mL (≈ 17.9 µM) | MIC (S. aureus ATCC 25923; Staphylococcus aureus, ATCC25923, read-out: MIC): 16 µg/mL (≈ 35.8 µM) | MIC [4, 7]: 8 µg/mL (≈ 17.9 µM) | MIC (S. pneumoniae AB 22; Streptococcus pneumoniae, AB22, read-out: MIC): 8 µg/mL (≈ 17.9 µM)
